From patent US10072011B2, “Substituted bridged urea analogs as sirtuin modulators” (GlaxoSmithKline Intellectual Property (No.2) Limited, priority 2014, dated 2018) come the findings set out here.

Each structure is given as a SMILES string. Read-outs that look alike come from different tables or passages of the source.

In the experiment the target is T1, SIRT1 (Homo sapiens, UniProt Q96EB6).
T1 sequence (Q96EB6 1-747): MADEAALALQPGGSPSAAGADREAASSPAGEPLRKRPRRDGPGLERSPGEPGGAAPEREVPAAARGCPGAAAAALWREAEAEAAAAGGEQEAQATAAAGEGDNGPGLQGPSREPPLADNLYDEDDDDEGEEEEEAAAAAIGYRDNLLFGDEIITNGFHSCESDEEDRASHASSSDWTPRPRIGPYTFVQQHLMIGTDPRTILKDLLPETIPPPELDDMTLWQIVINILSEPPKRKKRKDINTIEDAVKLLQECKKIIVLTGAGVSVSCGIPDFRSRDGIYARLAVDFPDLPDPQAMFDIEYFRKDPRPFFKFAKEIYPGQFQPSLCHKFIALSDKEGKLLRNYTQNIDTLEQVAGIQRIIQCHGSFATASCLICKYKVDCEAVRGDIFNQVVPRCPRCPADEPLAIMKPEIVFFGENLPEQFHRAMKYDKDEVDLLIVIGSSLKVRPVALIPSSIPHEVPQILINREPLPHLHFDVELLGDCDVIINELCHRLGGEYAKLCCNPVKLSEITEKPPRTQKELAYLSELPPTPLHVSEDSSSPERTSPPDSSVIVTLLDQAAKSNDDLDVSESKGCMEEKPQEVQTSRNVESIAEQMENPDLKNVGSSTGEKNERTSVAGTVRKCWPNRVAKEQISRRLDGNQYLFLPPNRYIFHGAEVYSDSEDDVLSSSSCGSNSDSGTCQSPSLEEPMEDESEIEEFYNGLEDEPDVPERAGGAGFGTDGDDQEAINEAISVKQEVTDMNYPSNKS
The experiment in a line: Trp mass spectrometry assay of SIRT1 activation (Ac-R-H-K-K(Ac)-W-NH2 peptide). The format is biochemical. The note with it: for Emax: 25 min, read-out: TRP MAX RESP (percent maximum fold activation). The essentials: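 Mass spectrometry read-out (OAADPR formed, or deacetylated Trp peptide) after a 25 min NAD-dependent deacetylation by E. coli-expressed His-SIRT1, stopped with formic acid.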

Where [1] appears, read: Trp peptide 0.5 μM, 120 μM βNAD+, 10 nM SIRT1, 25 min at 25° C., relative to control (100%).
[2] abbreviates: Trp peptide 0.5 μM, 120 μM βNAD+, 10 nM SIRT1, 25 min at 25° C.

On to `Cc1ncc(-c2cc(NC(=O)N3c4nc(C(=O)NCC(F)(F)F)ccc4N4CC[C@H]3C4)ncn2)o1` [Example 169, (4S)—N5-(6-(2-methyloxazol-5-yl)pyrimidin-4-yl)-N7-(2,2,2-trifluoroethyl)-3,4-dihydro-1,4-methanopyrido[2,3-b][1,4]diazepine-5,7(2H)-dicarboxamide], for which the Emax under setting [1] was more than 150%. Besides, under setting [2], the “TRP Activity (EC1.5, concentration of test compound that results in 150% activation of SIRT1)” value is listed as “A (EC1.5<1 μM)”.
Consider `C[C@@H](NC(=O)c1ccc2c(n1)N(C(=O)Nc1cc3cn[nH]c3cn1)[C@H]1CCN2C1)C(F)(F)F` [Example 170, (4S)—N5-(1H-pyrazolo[3,4-c]pyridin-5-yl)-N7-((R)-1,1,1-trifluoropropan-2-yl)-3,4-dihydro-1,4-methanopyrido[2,3-b][1,4]diazepine-5,7(2H)-dicarboxamide], for which the Emax under setting [1] was more than 150%. The “TRP Activity (EC1.5, concentration of test compound that results in 150% activation of SIRT1)” value under setting [2] is recorded as “A (EC1.5<1 μM)”.
On the same counts, the results for `O=C(NCc1ccccc1)c1ccc2c(n1)N(C(=O)Nc1cc(OC[C@H](O)CO)ccn1)[C@H]1CCN2C1` [Example 171, (4S)—N7-benzyl-N5-(4-((R)-2,3-dihydroxypropoxy)pyridin-2-yl)-3,4-dihydro-1,4-methanopyrido[2,3-b][1,4]diazepine-5,7(2H)-dicarboxamide] are more than 150% and “A (EC1.5<1 μM)”.
`CC(C)c1ccc(NC(=O)N2c3nc(C(=O)NCC(F)(F)F)ccc3N3CC[C@H]2C3)nc1` [Example 172, (4S)—N5-(5-isopropylpyridin-2-yl)-N7-(2,2,2-trifluoroethyl)-3,4-dihydro-1,4-methanopyrido[2,3-b][1,4]diazepine-5,7(2H)-dicarboxamide]: the Emax under setting [1] was more than 150%. The “TRP Activity (EC1.5, concentration of test compound that results in 150% activation of SIRT1)” value under setting [2] is “A (EC1.5<1 μM)”.
As for `C[C@@H](NC(=O)c1ccc2c(n1)N(C(=O)Nc1ncc(OC[C@H](O)CO)cn1)[C@H]1CCN2C1)C(F)(F)F` [Example 173, (4S)—N5-(5-((R)-2,3-dihydroxypropoxy)pyrimidin-2-yl)-N7-((R)-1,1,1-trifluoropropan-2-yl)-3,4-dihydro-1,4-methanopyrido[2,3-b][1,4]diazepine-5,7(2H)-dicarboxamide], the Emax under setting [1] was more than 150%. Moreover, the “TRP Activity (EC1.5, concentration of test compound that results in 150% activation of SIRT1)” value under setting [2] is reported as “A (EC1.5<1 μM)”.
For the compound `O=C(NCC(F)(F)F)c1ccc2c(n1)N(C(=O)Nc1ccc(C3CC3)cn1)[C@H]1CCN2C1` [Example 174, (4S)—N5-(5-cyclopropylpyridin-2-yl)-N7-(2,2,2-trifluoroethyl)-3,4-dihydro-1,4-methanopyrido[2,3-b][1,4]diazepine-5,7(2H)-dicarboxamide], under setting [1], the Emax is more than 150%. The “TRP Activity (EC1.5, concentration of test compound that results in 150% activation of SIRT1)” value under setting [2] was “A (EC1.5<1 μM)”.
On the same counts, the results for `Cc1c[nH]c2nc(NC(=O)N3c4nc(C(=O)N[C@H](C)C(F)(F)F)ccc4N4CC[C@H]3C4)ncc12` [Example 175, (4S)—N5-(5-methyl-7H-pyrrolo[2,3-d]pyrimidin-2-yl)-N7-((R)-1,1,1-trifluoropropan-2-yl)-3,4-dihydro-1,4-methanopyrido[2,3-b][1,4]diazepine-5,7(2H)-dicarboxamide] are more than 150% and “A (EC1.5<1 μM)”.
On to `Cc1c[nH]c2nc(NC(=O)N3c4nc(C(=O)NCC(F)(F)F)ccc4N4CC[C@H]3C4)ncc12` [Example 176, (4S)—N5-(5-methyl-7H-pyrrolo[2,3-d]pyrimidin-2-yl)-N7-(2,2,2-trifluoroethyl)-3,4-dihydro-1,4-methanopyrido[2,3-b][1,4]diazepine-5,7(2H)-dicarboxamide], for which the Emax was more than 150%. Further, the “TRP Activity (EC1.5, concentration of test compound that results in 150% activation of SIRT1)” value under setting [2] is listed as “A (EC1.5<1 μM)”.
Regarding `C[C@@H](NC(=O)c1ccc2c(n1)N(C(=O)Nc1ncc(OC[C@@H](O)CO)cn1)[C@H]1CCN2C1)C(F)(F)F` [Example 177, (4S)—N5-(5-((S)-2,3-dihydroxypropoxy)pyrimidin-2-yl)-N7-((R)-1,1,1-trifluoropropan-2-yl)-3,4-dihydro-1,4-methanopyrido[2,3-b][1,4]diazepine-5,7(2H)-dicarboxamide], under setting [1], the Emax was more than 150%. In addition, under setting [2], the “TRP Activity (EC1.5, concentration of test compound that results in 150% activation of SIRT1)” value is “B (EC1.5 1-25 μM)”.
Consider `C=CCNC(=O)c1ccc2c(n1)N(C(=O)Nc1cc(OC[C@H](O)CO)ccn1)[C@H]1CCN2C1` [Example 178, (4S)—N7-allyl-N5-(4-((R)-2,3-dihydroxypropoxy)pyridin-2-yl)-3,4-dihydro-1,4-methanopyrido[2,3-b][1,4]diazepine-5,7(2H)-dicarboxamide], for which the Emax under setting [1] is more than 150%. In addition, under setting [2], the “TRP Activity (EC1.5, concentration of test compound that results in 150% activation of SIRT1)” value is “B (EC1.5 1-25 μM)”.
For `C=CCNC(=O)c1ccc2c(n1)N(C(=O)Nc1ccccn1)[C@H]1CCN2C1` [Example 179, (4S)—N7-allyl-N5-(pyridin-2-yl)-3,4-dihydro-1,4-methanopyrido[2,3-b][1,4]diazepine-5,7(2H)-dicarboxamide], the Emax under setting [1] is more than 150%. The “TRP Activity (EC1.5, concentration of test compound that results in 150% activation of SIRT1)” value under setting [2] is on record as “A (EC1.5<1 μM)”.
Take `O=C(NCCO)c1ccnc(NC(=O)N2c3nc(C(=O)NCC(F)(F)F)ccc3N3CC[C@H]2C3)c1` [Example 180, (4S)—N5-(4-((2-hydroxyethyl)carbamoyl)pyridin-2-yl)-N7-(2,2,2-trifluoroethyl)-3,4-dihydro-1,4-methanopyrido[2,3-b][1,4]diazepine-5,7(2H)-dicarboxamide]: the Emax under setting [1] was more than 150%. For the same compound, the “TRP Activity (EC1.5, concentration of test compound that results in 150% activation of SIRT1)” value under setting [2] is recorded as “A (EC1.5<1 μM)”.
Consider `C[C@@H](NC(=O)c1ccc2c(n1)N(C(=O)Nc1cc3cc[nH]c3cn1)[C@H]1CCN2C1)C(F)(F)F` [Example 181, (4S)—N5-(1H-pyrrolo[2,3-c]pyridin-5-yl)-N7-((R)-1,1,1-trifluoropropan-2-yl)-3,4-dihydro-1,4-methanopyrido[2,3-b][1,4]diazepine-5,7(2H)-dicarboxamide], for which the Emax under setting [1] was more than 150%. For the same compound, the “TRP Activity (EC1.5, concentration of test compound that results in 150% activation of SIRT1)” value under setting [2] is on record as “A (EC1.5<1 μM)”.
In the case of `C[C@@H](NC(=O)c1ccc2c(n1)N(C(=O)Nc1cc(-n3ccnn3)ccn1)[C@H]1CCN2C1)C(F)(F)F` [Example 182, (4S)—N5-(4-(1H-1,2,3-triazol-1-yl)pyridin-2-yl)-N7-((R)-1,1,1-trifluoropropan-2-yl)-3,4-dihydro-1,4-methanopyrido[2,3-b][1,4]diazepine-5,7(2H)-dicarboxamide], the Emax under setting [1] is more than 150%. In addition, under setting [2], the “TRP Activity (EC1.5, concentration of test compound that results in 150% activation of SIRT1)” value is given as “A (EC1.5<1 μM)”.
The matching figures for `CC(F)(F)CNC(=O)c1ccc2c(n1)N(C(=O)Nc1cc(OC[C@H](O)CO)ccn1)[C@H]1CCN2C1` [Example 183, (4S)—N7-(2,2-difluoropropyl)-N5-(4-((R)-2,3-dihydroxypropoxy)pyridin-2-yl)-3,4-dihydro-1,4-methanopyrido[2,3-b][1,4]diazepine-5,7(2H)-dicarboxamide]: more than 150% and “B (EC1.5 1-25 μM)”.
As to `O=C(N[C@H](c1ccccc1)C(F)(F)F)c1ccc2c(n1)N(C(=O)Nc1cc(OC[C@H](O)CO)ccn1)[C@H]1CCN2C1` [Example 184, (4S)—N5-(4-((R)-2,3-dihydroxypropoxy)pyridin-2-yl)-N7-((R)-2,2,2-trifluoro-1-phenylethyl)-3,4-dihydro-1,4-methanopyrido[2,3-b][1,4]diazepine-5,7(2H)-dicarboxamide], the Emax under setting [1] is more than 150%. Further, the “TRP Activity (EC1.5, concentration of test compound that results in 150% activation of SIRT1)” value under setting [2] is given as “A (EC1.5<1 μM)”.
On to `Cn1ccc(=O)c(NC(=O)N2c3nc(C(=O)NCC(F)(F)F)ccc3N3CC[C@H]2C3)c1` [Example 185, (4S)—N5-(1-methyl-4-oxo-1,4-dihydropyridin-3-yl)-N7-(2,2,2-trifluoroethyl)-3,4-dihydro-1,4-methanopyrido[2,3-b][1,4]diazepine-5,7(2H)-dicarboxamide], for which the Emax is more than 150%. For the same compound, the “TRP Activity (EC1.5, concentration of test compound that results in 150% activation of SIRT1)” value under setting [2] is reported as “A (EC1.5<1 μM)”.
For the compound `C[C@@H](NC(=O)c1ccc2c(n1)N(C(=O)Nc1cc(OCCN)ccn1)[C@H]1CCN2C1)C(F)(F)F` [Example 186, (4S)—N5-(4-(2-aminoethoxy)pyridin-2-yl)-N7-((R)-1,1,1-trifluoropropan-2-yl)-3,4-dihydro-1,4-methanopyrido[2,3-b][1,4]diazepine-5,7(2H)-dicarboxamide], the Emax under setting [1] was more than 150%. Under setting [2], the “TRP Activity (EC1.5, concentration of test compound that results in 150% activation of SIRT1)” value is listed as “B (EC1.5 1-25 μM)”.
